One assay has as its target T1, LonP1 C576V (Homo sapiens, UniProt P36776, C576V).
T1 construct: hexa-histidine (N); made in house; host or cells: Rosetta 2 E. coli
T1 sequence (P36776 68-959 C576V): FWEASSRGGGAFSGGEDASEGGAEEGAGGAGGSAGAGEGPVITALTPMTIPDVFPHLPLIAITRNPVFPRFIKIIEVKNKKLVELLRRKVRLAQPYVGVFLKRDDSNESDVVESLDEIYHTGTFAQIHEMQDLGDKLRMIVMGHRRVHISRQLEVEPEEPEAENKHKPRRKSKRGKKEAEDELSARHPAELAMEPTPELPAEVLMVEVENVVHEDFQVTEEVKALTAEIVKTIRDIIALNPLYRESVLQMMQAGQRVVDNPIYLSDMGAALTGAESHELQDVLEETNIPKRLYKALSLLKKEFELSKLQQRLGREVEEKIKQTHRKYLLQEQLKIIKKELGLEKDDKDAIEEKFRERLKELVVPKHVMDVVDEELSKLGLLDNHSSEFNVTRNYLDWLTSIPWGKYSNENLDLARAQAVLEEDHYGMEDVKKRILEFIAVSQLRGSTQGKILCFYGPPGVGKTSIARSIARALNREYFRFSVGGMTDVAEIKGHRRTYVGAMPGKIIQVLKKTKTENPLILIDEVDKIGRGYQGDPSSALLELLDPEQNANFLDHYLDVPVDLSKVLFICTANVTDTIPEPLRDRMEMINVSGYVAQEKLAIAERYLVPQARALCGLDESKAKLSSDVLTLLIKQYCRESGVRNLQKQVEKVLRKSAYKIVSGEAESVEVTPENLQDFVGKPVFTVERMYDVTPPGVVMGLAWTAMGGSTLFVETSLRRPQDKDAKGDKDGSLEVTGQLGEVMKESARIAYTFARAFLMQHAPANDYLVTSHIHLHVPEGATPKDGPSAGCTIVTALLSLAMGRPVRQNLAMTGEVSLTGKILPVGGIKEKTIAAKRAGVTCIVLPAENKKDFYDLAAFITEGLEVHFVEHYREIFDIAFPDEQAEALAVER
The assay can be described thus: Endpoint ATPase assay, LonP1 C576V. It is filed as biochemical. Here is the method: (§1) Human mitochondrial LonP1 and mutants lacking the predicted mitochondrial targeting sequence were fused to an N-terminal hexa-histidine affinity tag, expressed in Rosetta 2 E. Coli, and purified using a nickel agarose column as previously described ([72]) and protein concentration and buffer exchange carried out using Amicon Ultra centrifugal filtration. LonP1 mutant constructs were obtained from the PCR-based QuikChange Site-Directed Mutagenesis Kit.
(§2) ADP-Glo (Promega) assays were performed according to the manufacturer's protocols. Purified wild-type or mutant LonP1 (400 nM monomer), the 26S proteasome (3 nM), or no enzyme controls were preincubated in 96-well plates (60 min, 25 °C) with ten different concentrations of CDDO and its derivatives, TP-82, enoxolone (5 μM) or DMSO vehicle control in buffer (40 mM Tris-HCl (pH 7.5), 20 mM MgCl2, 0.1 mg/ml BSA and 5% DMSO). The 26S and 20S proteasome were also assayed at 0, 0.75, 1.5, 3, 6, and 12 nM in the absence of CDDO derivatives. […] Assay reagents were used to quench further ATPase activity and generate luminescence signals proportional to the concentration of ADP formed. Background (no enzyme control) luminescence values were subtracted, and resultant values were reported as a percentage of the no drug control (100%). […]

The target of another assay is T2, LonP1 F547A (Homo sapiens, UniProt P36776, F547A).
T2 construct: hexa-histidine (N); made in house; host or cells: Rosetta 2 E. coli
T2 sequence (P36776 68-959 F547A): T1 sequence (P36776 68-959 C576V) with F480A, V509C
The assay can be described thus: Endpoint ATPase assay, LonP1 F547A. It is filed as biochemical. As for the experimental part: as §1, §2

[1] abbreviates: end-point ATPase assay, read-out: CDDO IC50.

This note sets out measurements from article PMC8921294, “Inhibition of mitochondrial LonP1 protease by allosteric blockade of ATP binding and hydrolysis via CDDO and its derivatives” (The Journal of Biological Chemistry, 2022).

Changes are numbered by the printed parent chain.

As a reminder, the IC50 is the concentration that gives 50% inhibition. `CC1(C)CC[C@]2(C(=O)O)CC[C@]3(C)[C@H](C(=O)C=C4[C@@]5(C)C=C(C#N)C(=O)C(C)(C)[C@@H]5CC[C@]43C)[C@@H]2C1` [CDDO, 2-cyano-3,12-dioxooleana-1,9(11)-dien-28-oic acid]: the “Fold increase in inhibition compared with WT” value turned out to be 2.7 at LonP1 C576V and 2.4 on LonP1 F547A. Further, the IC50 turned out to be 5.2 ± 1.5 µM on LonP1 C576V (setting [1]) and 5.9 ± 0.6 µM at LonP1 F547A (setting [1]).
